Measurements taken from ChEMBL document CHEMBL1201862, “PubChem BioAssay data set” (2004).
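Protocol summary: plate cells (96-well), add compound at 5 concentrations, incubate 48 h, interpolate endpoints linearly. GI50 = concentration required for 50% inhibition of growth.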 The source made the active and inactive calls. Cut-off read from the data, not from the text of the source: active = GI50 up to about 1.1 µM and inactive = higher.

Tests used:
Assay in all cases: NCI anticancer screen, dose series, 48 h
[1] = system: SK-MEL-2
[2] = system: M14
[3] = system: NCI-H522
[4] = system: Malme-3M
[5] = system: SF-268
[6] = system: LOX IMVI
[7] = system: MOLT-4
[8] = system: DU-145
[9] = system: COLO 205
[10] = system: PC-3
[11] = system: UACC-62
[12] = system: RXF 393
[13] = system: SW-620
[14] = system: OVCAR-8
[15] = system: SK-MEL-5
[16] = system: ACHN
[17] = system: CAKI-1
[18] = system: OVCAR-4
[19] = system: U-251
[20] = system: HOP-92

Row | SMILES | GI50 [1] | GI50 [2] | GI50 [3] | GI50 [4] | GI50 [5] | GI50 [6] | GI50 [7] | GI50 [8] | GI50 [9] | GI50 [10] | GI50 [11] | GI50 [12] | GI50 [13] | GI50 [14] | GI50 [15] | GI50 [16] | GI50 [17] | GI50 [18] | GI50 [19] | GI50 [20]
1 | CC(=N/NC(N)=S)/C(C)=N/NC(N)=S | > 100 µM (inactive) | > 100 µM (inactive) | > 100 µM (inactive) | > 100 µM (inactive) | > 100 µM (inactive) | > 100 µM (inactive) | > 100 µM (inactive) | > 100 µM (inactive) | > 100 µM (inactive) | > 100 µM (inactive) | > 100 µM (inactive) | > 100 µM (inactive) | > 100 µM (inactive) | > 100 µM (inactive) | > 100 µM (inactive) | > 100 µM (inactive) | – | – | – | –
2 | O=CC12CCCN1CCC2 | > 100 µM (inactive) | > 100 µM (inactive) | > 100 µM (inactive) | > 100 µM (inactive) | – | > 100 µM (inactive) | > 100 µM (inactive) | > 100 µM (inactive) | > 100 µM (inactive) | > 100 µM (inactive) | > 100 µM (inactive) | > 100 µM (inactive) | > 100 µM (inactive) | – | > 100 µM (inactive) | > 100 µM (inactive) | > 100 µM (inactive) | > 100 µM (inactive) | > 100 µM (inactive) | –
3 | BrCC[P+](c1ccccc1)(c1ccccc1)c1ccccc1 | 5.26 µM (inactive) | 4.15 µM (inactive) | – | – | 2.13 µM (inactive) | 4.23 µM (inactive) | 4.43 µM (inactive) | 6.49 µM (inactive) | 2.87 µM (inactive) | 5.21 µM (inactive) | 6.58 µM (inactive) | 2.43 µM (inactive) | 2.51 µM (inactive) | 3.1 µM (inactive) | 8.11 µM (inactive) | 3.18 µM (inactive) | 4.37 µM (inactive) | 6.5 µM (inactive) | 3.87 µM (inactive) | 3.57 µM (inactive)
4 | C=C(Cl)C(Cl)(CBr)CCC(Br)C(C)(C)Br (stereo unspecified) | – | 16.3 µM (inactive) | 5.86 µM (inactive) | 14.3 µM (inactive) | 3.22 µM (inactive) | 15.3 µM (inactive) | 6.9 µM (inactive) | 3.97 µM (inactive) | 2.75 µM (inactive) | 2.31 µM (inactive) | 9.93 µM (inactive) | 1.8 µM (inactive) | 3 µM (inactive) | 4.3 µM (inactive) | 16.6 µM (inactive) | 2.62 µM (inactive) | 2.47 µM (inactive) | 16.3 µM (inactive) | 1.77 µM (inactive) | 2.76 µM (inactive)
5 | CN1CCN(c2n[nH]c(=O)c3c2nnn3Cc2ccccc2)CC1 | > 100 µM (inactive) | > 100 µM (inactive) | – | > 100 µM (inactive) | > 100 µM (inactive) | > 100 µM (inactive) | > 100 µM (inactive) | > 100 µM (inactive) | > 100 µM (inactive) | 5.89 µM (inactive) | – | 86.7 µM (inactive) | – | > 100 µM (inactive) | > 100 µM (inactive) | > 100 µM (inactive) | > 100 µM (inactive) | > 100 µM (inactive) | > 100 µM (inactive) | 17.2 µM (inactive)
6 | Clc1ccc(C2=NCON=C2c2ccc(Cl)cc2)cc1 | 19.9 µM (inactive) | – | – | 14.5 µM (inactive) | 19.7 µM (inactive) | 15.1 µM (inactive) | 15.9 µM (inactive) | 30.5 µM (inactive) | 16.3 µM (inactive) | 18.2 µM (inactive) | 18.9 µM (inactive) | 18.7 µM (inactive) | 19.9 µM (inactive) | 25.6 µM (inactive) | 16.6 µM (inactive) | 19 µM (inactive) | 21.6 µM (inactive) | 27.4 µM (inactive) | 18.3 µM (inactive) | 18.4 µM (inactive)
7 | CNc1ncccc1Nc1cc(=O)n2c3cccnc3n(C)c2c1 | – | > 100 µM (inactive) | 61 µM (inactive) | – | 51.8 µM (inactive) | > 100 µM (inactive) | > 100 µM (inactive) | > 100 µM (inactive) | > 100 µM (inactive) | 9.51 µM (inactive) | > 100 µM (inactive) | 20.6 µM (inactive) | > 100 µM (inactive) | > 100 µM (inactive) | > 100 µM (inactive) | > 100 µM (inactive) | 94.6 µM (inactive) | 38.9 µM (inactive) | 21.8 µM (inactive) | –
8 | C=CCOC(=O)C1C2OC3(C(C(=O)OC)=C2C(=O)OC)c2ccccc2CCC13 (stereo unspecified) | > 10 µM (inactive) | > 10 µM (inactive) | – | > 10 µM (inactive) | > 10 µM (inactive) | > 10 µM (inactive) | > 10 µM (inactive) | > 10 µM (inactive) | > 10 µM (inactive) | > 10 µM (inactive) | > 10 µM (inactive) | > 10 µM (inactive) | > 10 µM (inactive) | > 10 µM (inactive) | > 10 µM (inactive) | > 10 µM (inactive) | > 10 µM (inactive) | > 10 µM (inactive) | > 10 µM (inactive) | –
9 | C=C(C)[C@@H]1CC[C@]2(C)CC[C@]3(C)[C@H](CC[C@@H]4[C@@]5(C)CC[C@H](OC(=O)c6ccccc6)C(C)(C)[C@@H]5CC[C@]43C)[C@@H]12 | > 100 µM (inactive) | > 100 µM (inactive) | > 100 µM (inactive) | > 100 µM (inactive) | > 100 µM (inactive) | > 100 µM (inactive) | > 100 µM (inactive) | > 100 µM (inactive) | > 100 µM (inactive) | > 100 µM (inactive) | > 100 µM (inactive) | – | > 100 µM (inactive) | > 100 µM (inactive) | > 100 µM (inactive) | > 100 µM (inactive) | > 100 µM (inactive) | > 100 µM (inactive) | > 100 µM (inactive) | > 100 µM (inactive)
10 | O=C1NC(c2cccc(OCc3ccccc3)c2)Nc2ccccc21 (stereo unspecified) | 1.67 µM (inactive) | 0.181 µM (active) | 0.213 µM (active) | 0.0897 µM (active) | 0.541 µM (active) | 0.252 µM (active) | 0.23 µM (active) | 0.172 µM (active) | 0.191 µM (active) | 0.162 µM (active) | 0.495 µM (active) | 0.11 µM (active) | 0.0938 µM (active) | 0.315 µM (active) | 0.0326 µM (active) | 0.442 µM (active) | 0.628 µM (active) | 13.7 µM (inactive) | 0.232 µM (active) | –
11 | CCN(CC)CCCC(C)Nc1cc(/C=C/c2ccc(Cl)cc2)nc2cc(N(C)C)ccc12 (stereo unspecified) | – | 1.61 µM (inactive) | – | – | 1.83 µM (inactive) | – | 1.19 µM (inactive) | 1.66 µM (inactive) | – | 1.41 µM (inactive) | 2.52 µM (inactive) | 1.61 µM (inactive) | 1.33 µM (inactive) | 1.86 µM (inactive) | 2.01 µM (inactive) | 2.11 µM (inactive) | – | – | 1.64 µM (inactive) | 1.74 µM (inactive)
12 | Cc1ccsc1/C=N/Nc1ncccn1 | > 100 µM (inactive) | > 100 µM (inactive) | – | > 100 µM (inactive) | > 100 µM (inactive) | > 100 µM (inactive) | > 100 µM (inactive) | > 100 µM (inactive) | > 100 µM (inactive) | > 100 µM (inactive) | > 100 µM (inactive) | > 100 µM (inactive) | > 100 µM (inactive) | > 100 µM (inactive) | > 100 µM (inactive) | > 100 µM (inactive) | > 100 µM (inactive) | > 100 µM (inactive) | > 100 µM (inactive) | > 100 µM (inactive)
13 | COc1ccc(C(=O)N(C(=O)N2CCN(c3ccccc3)CC2)S(=O)(=O)c2ccccc2)cc1 | 18.5 µM (inactive) | 19.7 µM (inactive) | 15.4 µM (inactive) | 28.2 µM (inactive) | 31.8 µM (inactive) | 13.7 µM (inactive) | 19.5 µM (inactive) | 27.2 µM (inactive) | 17.9 µM (inactive) | 30.5 µM (inactive) | 18.3 µM (inactive) | – | 37.4 µM (inactive) | 19.8 µM (inactive) | 14.5 µM (inactive) | 18.8 µM (inactive) | 20.3 µM (inactive) | 30.5 µM (inactive) | 18.1 µM (inactive) | 25.4 µM (inactive)
14 | O=c1cc(-c2cccnc2)[nH]c2cc3c(cc12)OCO3 | 8.04 µM (inactive) | 4.59 µM (inactive) | – | 3.15 µM (inactive) | 12.9 µM (inactive) | 4.67 µM (inactive) | 17.1 µM (inactive) | 33 µM (inactive) | 13.9 µM (inactive) | 11 µM (inactive) | 3.3 µM (inactive) | 9.02 µM (inactive) | 6.38 µM (inactive) | 12.9 µM (inactive) | 2.73 µM (inactive) | 13.6 µM (inactive) | – | > 73.3 µM (inactive) | 4.16 µM (inactive) | 13.5 µM (inactive)
15 | C/C(=N\NC(=S)N1CCOCC1)c1nc2cccnc2[nH]1 | 17.9 µM (inactive) | 68.2 µM (inactive) | 18.8 µM (inactive) | > 100 µM (inactive) | 24.8 µM (inactive) | 29.4 µM (inactive) | 32.2 µM (inactive) | 39.9 µM (inactive) | 36.9 µM (inactive) | 27.9 µM (inactive) | 37.7 µM (inactive) | – | 43 µM (inactive) | 21.4 µM (inactive) | 27.6 µM (inactive) | 25.4 µM (inactive) | 66.8 µM (inactive) | 13.7 µM (inactive) | 21.6 µM (inactive) | 14.1 µM (inactive)
